Several values for one entry are separate records, joined by “and”; a condition that tells them apart may be missing. Equal entries are not always repeated. Toxic doses and inconclusive results are not listed. No stated cut-off is given here; in the data, active means T/C of 150% or more; inactive means T/C below 125%.
Tested on: L1210 leukemia ip in BDF1 mice, survival T/C
Test: NCI In Vivo Anticancer Drug Screen. Data for tumor model L1210 Leukemia (intraperitoneal) in B6D2F1 (BDF1) mice
Details: endpoint: mean survival time, higher = longer survival
In short: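 Survival endpoint. Drug-treated group vs vehicle group, expressed as T divided by C. Tumor passaged by transplantation.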

[1] = dose: 100.0 mg/kg/injection, schedule: Q01DX009 (ip), vehicle: Klucel (hydroxypropylcellulose) (HPC)
[2] = dose: 200.0 mg/kg/injection, schedule: Q01DX009 (ip), vehicle: Klucel (hydroxypropylcellulose) (HPC)
[3] = dose: 400.0 mg/kg/injection, schedule: Q01DX009 (ip), vehicle: Klucel (hydroxypropylcellulose) (HPC)
[4] = dose: 100.0 mg/kg/injection, schedule: Q04DX003 (ip), vehicle: saline with Tween-80
[5] = dose: 200.0 mg/kg/injection, schedule: Q04DX003 (ip), vehicle: saline with Tween-80
[6] = dose: 400.0 mg/kg/injection, schedule: Q04DX003 (ip), vehicle: saline with Tween-80
[7] = dose: 100.0 mg/kg/injection, schedule: Q04DX002 (ip), vehicle: Klucel (hydroxypropylcellulose) (HPC)
[8] = dose: 200.0 mg/kg/injection, schedule: Q04DX002 (ip), vehicle: Klucel (hydroxypropylcellulose) (HPC)
[9] = dose: 100.0 mg/kg/injection, schedule: Q01DX009 (ip), vehicle: saline with Tween-80
[10] = dose: 200.0 mg/kg/injection, schedule: Q01DX009 (ip), vehicle: saline with Tween-80
[11] = dose: 400.0 mg/kg/injection, schedule: Q01DX009 (ip), vehicle: saline with Tween-80
[12] = dose: 400.0 mg/kg/injection, schedule: Q04DX002 (ip), vehicle: Klucel (hydroxypropylcellulose) (HPC)
[13] = dose: 100.0 mg/kg/injection, schedule: Q04DX003 (ip), vehicle: Klucel (hydroxypropylcellulose) (HPC)
[14] = dose: 200.0 mg/kg/injection, schedule: Q04DX003 (ip), vehicle: Klucel (hydroxypropylcellulose) (HPC)
[15] = dose: 400.0 mg/kg/injection, schedule: Q04DX003 (ip), vehicle: Klucel (hydroxypropylcellulose) (HPC)
[16] = dose: 100.0 mg/kg/injection, schedule: Q01DX001 (ip), vehicle: other
[17] = dose: 200.0 mg/kg/injection, schedule: Q01DX001 (ip), vehicle: other
[18] = dose: 400.0 mg/kg/injection, schedule: Q01DX001 (ip), vehicle: other

Measured: T/C

CCOc1ccc(NC(=O)Nc2ccccc2C(F)(F)F)cc1
inactive: [1] 89 % of control | [2] 96 % of control | [3] 100 % of control

Nc1ncnc2c1ncn2C1OC(COP(=O)(O)OP(=O)(O)OCC2OC([n+]3cccc(C=O)c3)C(O)C2O)C(O)C1O (centres undefined)
inactive: dose: 80.0 mg/kg/injection, schedule: Q01DX Z (ip), vehicle: saline 95 % of control | dose: 120.0 mg/kg/injection, schedule: Q01DX Z (ip), vehicle: saline 90 % of control | dose: 180.0 mg/kg/injection, schedule: Q01DX Z (ip), vehicle: saline 97 % of control | dose: 270.0 mg/kg/injection, schedule: Q01DX Z (ip), vehicle: saline 101 % of control

O=C1CCCc2c1[nH]c1ccccc21
inactive: [4] 97 % of control | [5] 98 % of control | [6] 98 % of control

Cc1cc(C)c(S(N)(=O)=O)c(C)c1
inactive: dose: 50.0 mg/kg/injection, schedule: Q04DX002 (ip), vehicle: Klucel (hydroxypropylcellulose) (HPC) 94 % of control | [7] 107 % of control | [8] 94 % of control

COc1ccc(Cl)cc1NC(=O)Oc1ccc(C(C)=O)cc1
inactive: dose: 100.0 mg/kg/injection, schedule: Q01DX001 (ip), vehicle: saline with Tween-80 100 % of control | [9] 97 % of control and 104 % of control | dose: 100.0 mg/kg/injection, schedule: Q04DX002 (ip), vehicle: saline with Tween-80 121 % of control | [4] 90 % of control | dose: 200.0 mg/kg/injection, schedule: Q01DX001 (ip), vehicle: saline with Tween-80 100 % of control | [10] 96 % of control | dose: 200.0 mg/kg/injection, schedule: Q04DX002 (ip), vehicle: saline with Tween-80 99 % of control | [5] 87 % of control | dose: 400.0 mg/kg/injection, schedule: Q01DX001 (ip), vehicle: saline with Tween-80 93 % of control | [11] 100 % of control and 86 % of control | dose: 400.0 mg/kg/injection, schedule: Q04DX002 (ip), vehicle: saline with Tween-80 99 % of control | [6] 99 % of control

CC(=Nc1cccc2ccccc12)c1c(O)cc(C)oc1=O
inactive: [1] 100 % of control | [7] 98 % of control | [2] 95 % of control | [8] 98 % of control | [3] 92 % of control | [12] 95 % of control

O=[N+]([O-])c1cccc(S/N=C/c2ccccc2O)c1
inactive: [7] 102 % of control | [8] 97 % of control | [12] 108 % of control

CCOc1ncc([N+](=O)[O-])cn1
inactive: [13] 101 % of control | [14] 114 % of control | [15] 103 % of control

CCOC(=O)C(=O)Cc1cnccn1
inactive: [16] 101 % of control and 108 % of control | [17] 100 % of control and 101 % of control | [18] 97 % of control

N#CCCP(CCC#N)CCP(CCC#N)CCC#N
inactive: [4] 96 % of control | [5] 89 % of control | [6] 86 % of control

COc1cc2c(cc1OC)C1CC(=O)C(CC(C)C)CN1CC2 (centres undefined)
inactive: dose: 25.0 mg/kg/injection, schedule: Q01DX009 (ip), vehicle: Klucel (hydroxypropylcellulose) (HPC) 105 % of control | dose: 50.0 mg/kg/injection, schedule: Q01DX009 (ip), vehicle: Klucel (hydroxypropylcellulose) (HPC) 103 % of control | [1] 117 % of control | [9] 102 % of control | [10] 90 % of control | [11] 89 % of control

O=C1c2ccccc2C(=O)N1Cc1ccccc1
inactive: [4] 92 % of control | [5] 100 % of control | [6] 96 % of control

COc1ccc2c(c1O)C13CCN(C)C(C2)C1CCC(O)C3 (centres undefined)
inactive: [1] 95 % of control | [13] 104 % of control | [2] 101 % of control | [14] 88 % of control | [3] 98 % of control | [15] 86 % of control

COc1ccc(OC)c(CCc2cc(OC)ccc2OC)c1
inactive: dose: 12.5 mg/kg/injection, schedule: Q01DX009 (ip), vehicle: other 93 % of control | dose: 25.0 mg/kg/injection, schedule: Q01DX009 (ip), vehicle: other 96 % of control | dose: 50.0 mg/kg/injection, schedule: Q01DX009 (ip), vehicle: other 98 % of control

O=[N+]([O-])c1ccc(/C=C/c2nccs2)o1
inactive: [13] 97 % of control | [14] 106 % of control | [15] 108 % of control

C=C(C)C#CC(O)(C(=O)OCC)C1CCCC1 (centres undefined)
inactive: [16] 100 % of control | [17] 93 % of control | [18] 93 % of control

O=C(c1ccc(Cl)cc1)N1CCC(CCCc2ccccc2)CC1
inactive: [7] 96 % of control | [8] 99 % of control | [12] 96 % of control

CC(=O)c1cc(C)c(O)c(C)c1
inactive: dose: 50.0 mg/kg/injection, schedule: Q01DX001 (ip), vehicle: carboxymethylcellulose (CMC) 107 % of control | dose: 100.0 mg/kg/injection, schedule: Q01DX001 (ip), vehicle: carboxymethylcellulose (CMC) 89 % of control | dose: 200.0 mg/kg/injection, schedule: Q01DX001 (ip), vehicle: carboxymethylcellulose (CMC) 94 % of control | dose: 400.0 mg/kg/injection, schedule: Q01DX001 (ip), vehicle: carboxymethylcellulose (CMC) 91 % of control

— PubChem BioAssay AID248 (DTP/NCI, 2004)
